Source: PubChem BioAssay AID1963973 (Molecular Pharmacology Branch, DTP, NCI, 2024)
Blank lines part the entries; values can stand above or below the compound they belong to.

Tested on: 883617-216-R-J1-PDC tumor spheroids, viability
Experiment: Anticancer human tumor 883617-216-R-J1-PDC patient-derived bladder carcinoma cell line growth inhibition [PI3K]
Details: spheroids with HUVEC and MSC; for IC50: curve of first compound; for viability, T/C: stronger effect = lower value
Outline: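 We assembled tumor spheroids that included a stromal compartment of HUVEC and MSCs, then exposed them to targeted agents alone and together with PI3K pathway inhibitors. Concentration series descended by half-log from clinically achievable Cmax levels. Viability served as the endpoint.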

[1] = second compound 0.00316 µM, first compound 0.0316 µM
[2] = second compound 0.00316 µM, first compound 0.1 µM
[3] = second compound 0.01 µM, first compound 0.0316 µM
[4] = second compound 0.01 µM, first compound 0.1 µM
[5] = second compound 0.0316 µM, first compound 0.0316 µM
[6] = second compound 0.0316 µM, first compound 0.1 µM
[7] = second compound 0.1 µM, first compound 0.0316 µM
[8] = second compound 0.1 µM, first compound 0.1 µM
[9] = second compound 0.316 µM, first compound 0.0316 µM
[10] = second compound 0.316 µM, first compound 0.1 µM
[11] = second compound 1 µM, first compound 0.0316 µM
[12] = second compound 1 µM, first compound 0.1 µM
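Also: spheroids exposed to agents for 7 days before the viability read.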

IC50 (second compound 0.00316 µM): 4090 nM
IC50 (second compound 0.01 µM): 3650 nM
IC50 (second compound 0.0316 µM): < 31.6 nM
IC50 (second compound 0.1 µM): < 31.6 nM
IC50 (second compound 0.316 µM): < 31.6 nM
IC50 (second compound 1 µM): < 31.6 nM
SMILES: CCCS(=O)(=O)Nc1ccc(F)c(C(=O)c2c[nH]c3ncc(-c4ccc(Cl)cc4)cc23)c1F + COc1c(OCCCN2CCOCC2)ccc2c3n(c(=NC(=O)c4cnc(N)nc4)nc12)CCN3
viability, T/C [1]: 78.5%
viability, T/C [2]: 88.4%
viability, T/C (second compound 0.00316 µM, first compound 0.316 µM): 85.1%
viability, T/C (second compound 0.00316 µM, first compound 1 µM): 77.9%
viability, T/C (second compound 0.00316 µM, first compound 3.16 µM): 61.7%
viability, T/C (second compound 0.00316 µM, first compound 10 µM): 10.4%
viability, T/C [3]: 67%
viability, T/C [4]: 72.6%
viability, T/C (second compound 0.01 µM, first compound 0.316 µM): 85.3%
viability, T/C (second compound 0.01 µM, first compound 1 µM): 61.7%
viability, T/C (second compound 0.01 µM, first compound 3.16 µM): 56.6%
viability, T/C (second compound 0.01 µM, first compound 10 µM): 13.1%
viability, T/C [5]: 38.8%
viability, T/C [6]: 45.7%
viability, T/C (second compound 0.0316 µM, first compound 0.316 µM): 47%
viability, T/C (second compound 0.0316 µM, first compound 1 µM): 44.2%
viability, T/C (second compound 0.0316 µM, first compound 3.16 µM): 36.9%
viability, T/C (second compound 0.0316 µM, first compound 10 µM): 12.8%
viability, T/C [7]: 25%
viability, T/C [8]: 19.9%
viability, T/C (second compound 0.1 µM, first compound 0.316 µM): 17.6%
viability, T/C (second compound 0.1 µM, first compound 1 µM): 17.8%
viability, T/C (second compound 0.1 µM, first compound 3.16 µM): 18%
viability, T/C (second compound 0.1 µM, first compound 10 µM): 7.55%
viability, T/C [9]: 5.17%
viability, T/C [10]: 7.28%
viability, T/C (second compound 0.316 µM, first compound 0.316 µM): 6.6%
viability, T/C (second compound 0.316 µM, first compound 1 µM): 8.36%
viability, T/C (second compound 0.316 µM, first compound 3.16 µM): 9.94%
viability, T/C (second compound 0.316 µM, first compound 10 µM): 4.39%
viability, T/C [11]: 3.48%
viability, T/C [12]: 4.22%
viability, T/C (second compound 1 µM, first compound 0.316 µM): 4.32%
viability, T/C (second compound 1 µM, first compound 1 µM): 5.19%
viability, T/C (second compound 1 µM, first compound 3.16 µM): 6.41%
viability, T/C (second compound 1 µM, first compound 10 µM): 2.37%

IC50 (second compound 0.00316 µM): 30 nM
IC50 (second compound 0.01 µM): 24.6 nM
IC50 (second compound 0.0316 µM): 7.16 nM
IC50 (second compound 0.1 µM): 0.331 nM
IC50 (second compound 0.316 µM): < 0.316 nM
IC50 (second compound 1 µM): < 0.316 nM
SMILES: CC(C)n1nc(-c2ccc3oc(N)nc3c2)c2c(N)ncnc21 + CC(Nc1ccc2c(c1)OCCn1cc(N3C(=O)OCC3C(F)F)nc1-2)C(N)=O
viability, T/C (second compound 0.00316 µM, first compound 0.000316 µM): 96.5%
viability, T/C (second compound 0.00316 µM, first compound 0.001 µM): 88.1%
viability, T/C (second compound 0.00316 µM, first compound 0.00316 µM): 75.4%
viability, T/C (second compound 0.00316 µM, first compound 0.01 µM): 72.1%
viability, T/C [1]: 50.5%
viability, T/C [2]: 16.6%
viability, T/C (second compound 0.01 µM, first compound 0.000316 µM): 85.5%
viability, T/C (second compound 0.01 µM, first compound 0.001 µM): 76.4%
viability, T/C (second compound 0.01 µM, first compound 0.00316 µM): 75%
viability, T/C (second compound 0.01 µM, first compound 0.01 µM): 69.8%
viability, T/C [3]: 44.2%
viability, T/C [4]: 19.6%
viability, T/C (second compound 0.0316 µM, first compound 0.000316 µM): 61.9%
viability, T/C (second compound 0.0316 µM, first compound 0.001 µM): 60.8%
viability, T/C (second compound 0.0316 µM, first compound 0.00316 µM): 54.4%
viability, T/C (second compound 0.0316 µM, first compound 0.01 µM): 49%
viability, T/C [5]: 31.4%
viability, T/C [6]: 16.6%
viability, T/C (second compound 0.1 µM, first compound 0.000316 µM): 52.2%
viability, T/C (second compound 0.1 µM, first compound 0.001 µM): 41.2%
viability, T/C (second compound 0.1 µM, first compound 0.00316 µM): 37.5%
viability, T/C (second compound 0.1 µM, first compound 0.01 µM): 32%
viability, T/C [7]: 22.1%
viability, T/C [8]: 11.5%
viability, T/C (second compound 0.316 µM, first compound 0.000316 µM): 31.9%
viability, T/C (second compound 0.316 µM, first compound 0.001 µM): 20.6%
viability, T/C (second compound 0.316 µM, first compound 0.00316 µM): 24.8%
viability, T/C (second compound 0.316 µM, first compound 0.01 µM): 15.8%
viability, T/C [9]: 14.4%
viability, T/C [10]: 10.2%
viability, T/C (second compound 1 µM, first compound 0.000316 µM): 17.4%
viability, T/C (second compound 1 µM, first compound 0.001 µM): 17.7%
viability, T/C (second compound 1 µM, first compound 0.00316 µM): 13.9%
viability, T/C (second compound 1 µM, first compound 0.01 µM): 11.2%
viability, T/C [11]: 11.5%
viability, T/C [12]: 5.87%
